Assay results reported in US6472348B1, “Pyridone derivatives and herbicides” (Kumiai Chemical Industry Co., Ltd., priority 1996, dated 2002).

Key:
barnyardgrass (Ec) [1] = assay: Test Example 1: herbicidal effects by paddy field soil treatment; format: in vivo; conditions: 100 g of the active ingredient per 10 ares, 21st day after the application, index 0-5 of Table 47;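 note: grade of growth control; 5 = at least 90%; 4 = 70 to 90%; 3 = 50 to 70%; 2 = 30 to 50%; 1 = 10 to 30%; 0 = under 10%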
Procedure, shortened: (§1)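 Greenhouse pot test in flooded paddy soil, dosed at 100 g a.i. per 10 ares; effect scored on day 21.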

bulrush (Sc) = assay: as above; format: in vivo; conditions: 100 g of the active ingredient per 10 ares, 21st day after the application, index 0-5 of Table 47;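 note: grade of growth control; 5 = at least 90%; 4 = 70 to 90%; 3 = 50 to 70%; 2 = 30 to 50%; 1 = 10 to 30%; 0 = under 10%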
Procedure, shortened: as §1

monochoria (Mo) = assay: as above; format: in vivo; conditions: 100 g of the active ingredient per 10 ares, 21st day after the application, index 0-5 of Table 47;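 note: grade of growth control; 5 = at least 90%; 4 = 70 to 90%; 3 = 50 to 70%; 2 = 30 to 50%; 1 = 10 to 30%; 0 = under 10%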
Procedure, shortened: as §1

Digitaria ciliaris (Di) = assay: Test Example 2: herbicidal effects by upland field soil treatment; format: in vivo; conditions: 100 g of the active ingredient per 10 ares;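 note: grade of growth control; 5 = at least 90%; 4 = 70 to 90%; 3 = 50 to 70%; 2 = 30 to 50%; 1 = 10 to 30%; 0 = under 10%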
From the text: (§2) (Test on Herbicidal Effects by Upland Field Soil Treatment)

barnyardgrass (Ec) [2] = assay: as above; format: in vivo; conditions: 100 g of the active ingredient per 10 ares
From the text: as §2

[3] = test system: common lambsquarters (Ch); assay: as above; format: in vivo; conditions: 100 g of the active ingredient per 10 ares
From the text: as §2

pale smartweed (Po) [4] = assay: as above; format: in vivo; conditions: 100 g of the active ingredient per 10 ares
From the text: as §2

rice flatsedge (Ci) [5] = assay: as above; format: in vivo; conditions: 100 g of the active ingredient per 10 ares
From the text: as §2

slender amaranth (Am) [6] = assay: as above; format: in vivo; conditions: 100 g of the active ingredient per 10 ares
From the text: as §2

Diaitaria ciliaris (Di) = assay: Test Example 3: herbicidal effects by upland field foliage treatment; format: in vivo; set-up: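 grade of growth control; 5 = at least 90%; 4 = 70 to 90%; 3 = 50 to 70%; 2 = 30 to 50%; 1 = 10 to 30%; 0 = under 10%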
Procedure, shortened: (§3)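 Scores reflect herbicidal effect graded by standards on the 14th day after foliage treatment of weeds grown 2 weeks in a greenhouse.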

barnyardgrass (Ec) [7] = assay: as above; format: in vivo; set-up: scale not given here
Procedure, shortened: as §3

[8] = test system: common lambsquarters (Ch); assay: as above; format: in vivo; set-up: scale not given here
Procedure, shortened: as §3

pale smartweed (Po) [9] = assay: as above; format: in vivo; set-up: scale not given here
Procedure, shortened: as §3

rice flatsedge (Ci) [10] = assay: as above; format: in vivo; set-up: scale not given here
Procedure, shortened: as §3

slender amaranth (Am) [11] = assay: as above; format: in vivo; set-up: scale not given here
Procedure, shortened: as §3

wheat (Tr) = assay: Test Example 9: crop plant selectivity by upland field foliage treatment (wheat), phytotoxicity; conditions: dose 1.6 g ai/10a, 14th day after treatment
Procedure, shortened: (§4)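 Seeds of wheat, pale smartweed, slender amaranth, common lambsquarters and China jute are sown in sand and grown 2 weeks under glass. Foliage is then treated, culture resumes in the greenhouse, and damage is graded on the 14th day.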

China jute (Ab) [12] = assay: Test Example 9: crop plant selectivity by upland field foliage treatment (wheat), herbicidal effects; format: in vivo; set-up: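 grade of growth control; 5 = at least 90%; 4 = 70 to 90%; 3 = 50 to 70%; 2 = 30 to 50%; 1 = 10 to 30%; 0 = under 10%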; conditions: dose 1.6 g ai/10a, 14th day after treatment
Procedure, shortened: as §4

[13] = test system: common lambsquarters (Ch); assay: as above; format: in vivo; set-up: scale not given here; conditions: dose 1.6 g ai/10a, 14th day after treatment
Procedure, shortened: as §4

pale smartweed (Po) [14] = assay: as above; format: in vivo; set-up: scale not given here; conditions: dose 1.6 g ai/10a, 14th day after treatment
Procedure, shortened: as §4

slender amaranth (Am) [15] = assay: as above; format: in vivo; set-up: scale not given here; conditions: dose 1.6 g ai/10a, 14th day after treatment
Procedure, shortened: as §4

soybean (Gl) = assay: Test Example 10: crop plant selectivity by upland field foliage treatment (soybean), phytotoxicity; conditions: dose 1.6 g ai/10a, 14th day after treatment
Protocol: (§5) (Test on Crop Plant Selectivity by Upland Field Foliage Treatment)
(§6) In a plastic pot (surface area: 600 cm^2) filled with sand, soybean (Gl), pale smartweed (Po), slender amaranth (Am), common lambsquarters (Ch) and China jute (Ab) were sown and cultured in a green house for 2 weeks. […] The plants were then cultured in a green house, and the evaluation of the herbicidal effects and phytotoxicity was conducted on the 14th day after the treatment in accordance with the standards as identified in Table 47.

China jute (Ab) [16] = assay: Test Example 10: crop plant selectivity by upland field foliage treatment (soybean), herbicidal effects; format: in vivo; conditions: dose 1.6 g ai/10a, 14th day after treatment
Protocol: as §5, §6

[17] = test system: common lambsquarters (Ch); assay: as above; format: in vivo; conditions: dose 1.6 g ai/10a, 14th day after treatment
Protocol: as §5, §6

pale smartweed (Po) [18] = assay: as above; format: in vivo; conditions: dose 1.6 g ai/10a, 14th day after treatment
Protocol: as §5, §6

slender amaranth (Am) [19] = assay: as above; format: in vivo; conditions: dose 1.6 g ai/10a, 14th day after treatment
Protocol: as §5, §6

corn (Ze) = assay: Test Example 11: crop plant selectivity by upland field foliage treatment (corn), phytotoxicity; conditions: upland field foliage treatment, dose 1.6 g ai/10a, 14th day after treatment
Procedure, shortened: (§7)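 Corn and the weed species were sown together in sand-filled pots and grown in a greenhouse for 2 weeks before foliar treatment. Herbicidal effect was scored on day 14 after treatment against a graded standard scale, with corn phytotoxicity scored alongside.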

China jute (Ab) [20] = assay: Test Example 11: crop plant selectivity by upland field foliage treatment (corn), herbicidal effects; format: in vivo; set-up: scale not given here; conditions: upland field foliage treatment (corn test), dose 1.6 g ai/10a, 14th day after treatment
Procedure, shortened: as §7

[21] = test system: common lambsquarters (Ch); assay: as above; format: in vivo; set-up: scale not given here; conditions: upland field foliage treatment (corn test), dose 1.6 g ai/10a, 14th day after treatment
Procedure, shortened: as §7

pale smartweed (Po) [22] = assay: as above; format: in vivo; set-up: scale not given here; conditions: upland field foliage treatment (corn test), dose 1.6 g ai/10a, 14th day after treatment
Procedure, shortened: as §7

slender amaranth (Am) [23] = assay: as above; format: in vivo; set-up: scale not given here; conditions: upland field foliage treatment (corn test), dose 1.6 g ai/10a, 14th day after treatment
Procedure, shortened: as §7

[24] = 21st day after the application, index 0-5 of Table 47
[25] = 100 g of the active ingredient per 10 ares, evaluated on the 14th day after treatment
[26] = evaluated on the 21st day after application
[27] = 100 g active ingredient per 10 ares, evaluated 14th day after treatment

Structure (SMILES)	Herbicidal effects Ec (barnyardgrass (Ec) [1])	Herbicidal effects Sc (bulrush (Sc))	Herbicidal effects Mo (monochoria (Mo))	Phytotoxicity Tr (wheat (Tr))	Herbicidal effects Ab (China jute (Ab) [12])	Herbicidal effects Ch [13]	Herbicidal effects Po (pale smartweed (Po) [14])	Herbicidal effects Am (slender amaranth (Am) [15])	Phytotoxicity Gl (soybean (Gl))	Herbicidal effects Ab (China jute (Ab) [16])	Herbicidal effects Ch [17]	Herbicidal effects Po (pale smartweed (Po) [18])	Herbicidal effects Am (slender amaranth (Am) [19])	Phytotoxicity Ze (corn (Ze))	Herbicidal effects Ab (China jute (Ab) [20])	Herbicidal effects Ch [21]	Herbicidal effects Po (pale smartweed (Po) [22])	Herbicidal effects Am (slender amaranth (Am) [23])	other results
COCSc1cc(-c2ccc(C(F)(F)F)n(C)c2=O)c(Cl)cc1Cl [1-126]	5	5	5	2	5	5	5	5	2	5	5	5	5	2	5	5	5	5	Herbicidal effects Di (Digitaria ciliaris (Di); [24]): 5; Herbicidal effects Ec (barnyardgrass (Ec) [2]; [24]): 5; Herbicidal effects Ch [3, 24]: 5; Herbicidal effects Po (pale smartweed (Po) [4]; [24]): 5; Herbicidal effects Ci (rice flatsedge (Ci) [5]; [24]): 5; Herbicidal effects Am (slender amaranth (Am) [6]; [24]): 5; Herbicidal effects Di (Diaitaria ciliaris (Di); [25]): 5; Herbicidal effects Ec (barnyardgrass (Ec) [7]; [25]): 5; Herbicidal effects Ch [8, 25]: 5; Herbicidal effects Po (pale smartweed (Po) [9]; [25]): 5; Herbicidal effects Ci (rice flatsedge (Ci) [10]; [25]): 5; Herbicidal effects Am (slender amaranth (Am) [11]; [25]): 5
Cn1c(C(F)(F)F)ccc(-c2cc(C(=O)OC3CCCC3)c(Cl)cc2F)c1=O [Compound 1-184]	5	5	5	2	5	5	5	5	2	5	5	5	5	1	5	5	5	5	Herbicidal effects Di (Digitaria ciliaris (Di); [26]): 5; Herbicidal effects Ec (barnyardgrass (Ec) [2]; [26]): 5; Herbicidal effects Ch [3, 26]: 5; Herbicidal effects Po (pale smartweed (Po) [4]; [26]): 5; Herbicidal effects Ci (rice flatsedge (Ci) [5]; [26]): 5; Herbicidal effects Am (slender amaranth (Am) [6]; [26]): 5; Herbicidal effects Di (Diaitaria ciliaris (Di); [27]): 5; Herbicidal effects Ec (barnyardgrass (Ec) [7]; [27]): 5; Herbicidal effects Ch [8, 27]: 5; Herbicidal effects Po (pale smartweed (Po) [9]; [27]): 5; Herbicidal effects Ci (rice flatsedge (Ci) [10]; [27]): 5; Herbicidal effects Am (slender amaranth (Am) [11]; [27]): 5
